Experimental data published in PubChem BioAssay (NCI).
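Dose response: 5 concentrations. Exposure: 48 h. Format: 96-well plates. Endpoint: linear interpolation; highest concentration if not reached. At the GI50, growth is halved. TGI: concentration producing complete growth inhibition.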

Experiments:
Test in all cases: NCI anticancer screen, dose series, 48 h
ACHN renal = system: ACHN renal
UACC-257 melanoma = system: UACC-257 melanoma
SNB-75 CNS = system: SNB-75 CNS
A549 NSCLC = system: A549 NSCLC
MCF7 breast = system: MCF7 breast
HS 578T breast = system: HS 578T breast
NCI-H23 lung = system: NCI-H23 lung
RPMI-8226 leukemia = system: RPMI-8226 leukemia

## C=C(C)COc1ccc2c(c1)CCC1C2CCC2(C)C(=O)/C(=N/O)CC12 (centres undefined)
ACHN renal
  TGI: 15.2 µM
UACC-257 melanoma
  TGI: 23.5 µM
SNB-75 CNS
  TGI: 11.9 µM
A549 NSCLC
  TGI: 26.4 µM
MCF7 breast
  TGI: 10.5 µM
HS 578T breast
  TGI: 27.7 µM
NCI-H23 lung
  TGI: 15.5 µM
RPMI-8226 leukemia
  TGI: 7.54 µM

## Cc1ccc(NC(=S)NNC(=S)Nc2ccc(C)cc2)cc1
ACHN renal
  GI50: 9.7 µM
  TGI: > 100 µM
UACC-257 melanoma
  GI50: 7.13 µM
  TGI: > 100 µM
SNB-75 CNS
  GI50: 3.39 µM
  TGI: 67.3 µM
A549 NSCLC
  GI50: 6.03 µM
  TGI: > 100 µM
MCF7 breast
  GI50: 3.75 µM
  TGI: > 100 µM
HS 578T breast
  GI50: 4.6 µM
  TGI: > 100 µM
NCI-H23 lung
  GI50: 5.98 µM
  TGI: > 100 µM
RPMI-8226 leukemia
  GI50: 4.46 µM
  TGI: 65.3 µM

## COc1cccc2nc(Nc3cccc(NC(=O)c4ccc(N5CCN(C)CC5)c(C(F)(F)F)c4)c3)ccc12
ACHN renal
  GI50: 1.53 µM
  TGI: 4.57 µM
UACC-257 melanoma
  GI50: 1.36 µM
  TGI: 3.51 µM
SNB-75 CNS
  GI50: 0.695 µM
  TGI: 1.68 µM
A549 NSCLC
  GI50: 1.43 µM
  TGI: 5.03 µM
MCF7 breast
  GI50: 0.851 µM
  TGI: 1.9 µM
HS 578T breast
  GI50: 1.07 µM
  TGI: 2.93 µM
NCI-H23 lung
  GI50: 2.93 µM
  TGI: 10.6 µM
RPMI-8226 leukemia
  GI50: 1.65 µM
  TGI: 6.44 µM

## CCCCCCCCCCCCCCCC(=O)NS(=O)(=O)OC[C@H]1O[C@@H](n2cnc3c(N)ncnc32)[C@H](O)[C@@H]1O
ACHN renal
  TGI: 1.64 µM
UACC-257 melanoma
  GI50: 0.333 µM
  TGI: 1.47 µM
SNB-75 CNS
  GI50: < 0.0471 µM
  TGI: 1.29 µM
A549 NSCLC
  GI50: 1.67 µM
  TGI: 3.82 µM
MCF7 breast
  GI50: 0.509 µM
  TGI: 9.77 µM
HS 578T breast
  GI50: 0.982 µM
  TGI: 6.04 µM
NCI-H23 lung
  GI50: 0.321 µM
  TGI: 1.25 µM
RPMI-8226 leukemia
  GI50: 3.44 µM
  TGI: 14.2 µM

## CC(C)C[C@H](NC(=O)[C@@H](Cc1ccccc1)n1ccc(Nc2ccccc2)cc1=O)B(O)O
ACHN renal
  GI50: 0.358 µM
  TGI: > 100 µM
UACC-257 melanoma
  GI50: 0.404 µM
  TGI: 2.48 µM
SNB-75 CNS
  GI50: 0.3 µM
  TGI: 1.83 µM
A549 NSCLC
  GI50: 0.525 µM
  TGI: 21.6 µM
MCF7 breast
  GI50: 0.374 µM
  TGI: 14.6 µM
HS 578T breast
  GI50: 0.361 µM
  TGI: 7.06 µM
NCI-H23 lung
  GI50: 0.835 µM
  TGI: 19.4 µM
RPMI-8226 leukemia
  GI50: 0.154 µM
  TGI: 3.87 µM

## COc1ccc(-c2nc3sccn3c2-c2ccnc(NCCNS(=O)(=O)c3ccc(C(F)(F)F)cc3)n2)cc1
ACHN renal
  GI50: 2.58 µM
  TGI: > 100 µM
UACC-257 melanoma
  GI50: 4.41 µM
  TGI: > 100 µM
SNB-75 CNS
  GI50: 1.98 µM
  TGI: 10.7 µM
A549 NSCLC
  GI50: 3.98 µM
  TGI: > 100 µM
MCF7 breast
  GI50: 3.15 µM
  TGI: > 100 µM
HS 578T breast
  GI50: 2.35 µM
  TGI: > 100 µM
NCI-H23 lung
  GI50: 3.56 µM
  TGI: 62.3 µM
RPMI-8226 leukemia
  GI50: 0.626 µM
  TGI: 5.53 µM

## O=C1/C(=C/c2ccc(Cl)cc2)CN(Cc2cn(CCCNc3ccnc4cc(Cl)ccc34)nn2)C/C1=C\c1ccc(Cl)cc1
ACHN renal
  GI50: 1.45 µM
  TGI: 2.84 µM
UACC-257 melanoma
  GI50: 1.72 µM
  TGI: 3.25 µM
SNB-75 CNS
  GI50: 1.39 µM
  TGI: 2.92 µM
A549 NSCLC
  GI50: 1.15 µM
  TGI: 2.56 µM
MCF7 breast
  GI50: 0.362 µM
  TGI: 1.46 µM
HS 578T breast
  GI50: 1.39 µM
  TGI: 5.95 µM
NCI-H23 lung
  GI50: 1.26 µM
  TGI: 3.82 µM
RPMI-8226 leukemia
  GI50: 0.285 µM
  TGI: 0.878 µM

## Nc1nc2ccc(CNc3ccc(C(=O)NC(CC(=O)O)C(=O)O)cc3)cc2c(=O)[nH]1 (centres undefined)
ACHN renal
  GI50: 3.6 µM
  TGI: > 100 µM
UACC-257 melanoma
  GI50: > 100 µM
  TGI: > 100 µM
SNB-75 CNS
  GI50: > 100 µM
  TGI: > 100 µM
A549 NSCLC
  GI50: 0.549 µM
MCF7 breast
  GI50: 1.2 µM
  TGI: > 100 µM
HS 578T breast
  GI50: > 64.2 µM
  TGI: > 100 µM
NCI-H23 lung
  GI50: 5.83 µM
  TGI: > 100 µM
RPMI-8226 leukemia
  GI50: 9.23 µM
  TGI: > 100 µM

## CC1(C)CC[C@]23CC[C@]4(C)[C@H](CC[C@@H]5[C@@]6(C)CCCNC(C)(C)[C@@H]6CC[C@]54C)[C@H]2[C@H]1OC3
ACHN renal
  GI50: 1.71 µM
  TGI: 3.08 µM
UACC-257 melanoma
  GI50: 1.92 µM
  TGI: 3.87 µM
SNB-75 CNS
  GI50: 1.5 µM
  TGI: 2.94 µM
A549 NSCLC
  GI50: 1.81 µM
  TGI: 3.43 µM
MCF7 breast
  GI50: 1.44 µM
  TGI: 3.01 µM
HS 578T breast
  GI50: 1.96 µM
  TGI: 4.69 µM
NCI-H23 lung
  GI50: 1.76 µM
  TGI: 3.5 µM
RPMI-8226 leukemia
  GI50: 1.94 µM
  TGI: 4.58 µM

## O=C(O)CN1C(=O)OC(c2ccccc2)C1=O (centres undefined)
ACHN renal
  TGI: > 100 µM
UACC-257 melanoma
  TGI: > 100 µM
SNB-75 CNS
  TGI: > 100 µM
A549 NSCLC
  TGI: > 100 µM
MCF7 breast
  TGI: > 100 µM
HS 578T breast
  TGI: > 100 µM
NCI-H23 lung
  TGI: > 100 µM
RPMI-8226 leukemia
  TGI: > 100 µM

## CCOC(=O)C1=C(C)NC2SC(=O)/C(=C\c3cccc(Cl)c3)N2C1c1ccccc1 (centres undefined)
ACHN renal
  GI50: > 100 µM
  TGI: > 100 µM
UACC-257 melanoma
  GI50: > 100 µM
  TGI: > 100 µM
SNB-75 CNS
  GI50: > 100 µM
  TGI: > 100 µM
A549 NSCLC
  GI50: > 100 µM
  TGI: > 100 µM
MCF7 breast
  GI50: 31.2 µM
  TGI: > 100 µM
HS 578T breast
  GI50: 90.4 µM
  TGI: > 100 µM
NCI-H23 lung
  GI50: > 100 µM
  TGI: > 100 µM
RPMI-8226 leukemia
  GI50: > 100 µM
  TGI: > 100 µM

## O=S(=O)(NCCNc1nccc(-c2c(-c3ccc(F)cc3)nc3sccn23)n1)c1ccc(O)cc1
ACHN renal
  GI50: 2.03 µM
  TGI: 45.6 µM
UACC-257 melanoma
  GI50: 5.84 µM
  TGI: 34.7 µM
SNB-75 CNS
  GI50: 1.68 µM
  TGI: 13.1 µM
A549 NSCLC
  GI50: 3.28 µM
  TGI: 43.1 µM
MCF7 breast
  GI50: 0.476 µM
  TGI: 14.4 µM
HS 578T breast
  GI50: 6.48 µM
  TGI: 42.7 µM
NCI-H23 lung
  GI50: 4.96 µM
  TGI: 28.1 µM
RPMI-8226 leukemia
  GI50: 4.52 µM
  TGI: 29.3 µM
